Test results: patent US10238630B2, “Use of eribulin and poly (ADP ribose) polymerase (PARP) inhibitors as combination therapy for the treatment of cancer” (Eisai R&D Management Co., Ltd., priority 2014, dated 2019)
Where a name gives a salt, the structure may show the parent alone.

Legend:
[1] = system: MDA-MB-436 human breast cancer xenografts; assay: Antitumor activity against subcutaneous MDA-MB-436 human breast cancer xenografts in SCID mice (three studies); format: in vivo
Experimental: MDA-MB-436 human triple negative breast cancer cells are BRCA1 mutant and PTEN null. Cells were maintained in monolayer cultures in RPMI-1640 growth medium supplemented with 10% fetal bovine serum at 37° C. in a 5% CO2 humidified incubator. On the day of inoculation, cells were harvested by trypsinization, washed, and resuspended in ice-cold PBS. Female immunodeficient SCID mice were inoculated subcutaneously near the right axillary area with MDA-MB-436 cells (5×10^6) in a 1:1 ratio (50 μL each) with Matrigel™ in a volume of 0.1 mL in phosphate buffered saline, using a 26-gauge needle. A total of 125 mice, approximately 6 weeks old were implanted with MDA-MB-436 cells.
E7449, carboplatin and E7389 were evaluated as single agents and in combination for antitumor activity against MDA-MB-436 human breast cancer xenografts in SCID mice. Three separate studies were performed. The first experiment consisted of a vehicle control group, an E7449 single agent group, two groups treated with single agent E7389 and 2 combination drug-treated groups (Table 1). Thirty mice were inoculated with MDA-MB-436 cells and on Day 58 following implantation, tumor volumes were measured and mice were randomized into the 6 treatment groups based on tumor volume (average of 300 mm^3). Following randomization, drug treatment was initiated. Groups A to D were composed of 5 mice and groups E and F consisted of 4 mice for a total of 28 mice on the first day of treatment. E7449 was formulated in 0.5% methyl cellulose and orally administered once daily for 28 days (starting on Day 58) at 60 mg/kg based on body weight at 0.1 mL per 10 g. E7389 was formulated in saline and was intravenously administered once every 4 days, 4 times (Day 58, 62, 66, and 70) at a dosage of 0.4 or 1.6 mg/kg as single agent or in combination with E7449, based on body weight at 0.1 mL per 10 g. The control group was treated with oral vehicle (0.5% methyl cellulose in water) daily and intravenous vehicle (saline) once every 4 days, 4 times. E7449 or vehicle was administered first and when dosing of all animals was complete, E7389 was administered to animals receiving the combination.
The second experiment consisted of a vehicle control group, an E7449 single agent group, 2 groups treated with single agent carboplatin, and 2 combination drug-treated groups (Table 2). Thirty-five mice were inoculated with MDA-MB-436 cells and on Day 57, following implantation, tumor volumes were measured and mice were randomized into 6 treatment groups based on tumor volume (average of 250 mm^3). Following randomization drug treatment was initiated. Groups A to D were composed of 5 mice and groups E and F consisted of 6 mice for a total of 32 mice on the first day of treatment. E7449, formulated in 0.5% methyl cellulose was orally administered daily for 28 days (starting on Day 57), at 60 mg/kg based on body weight at 0.1 mL per 10 g. Carboplatin was formulated in saline and was intravenously administered once on the first day of treatment (Day 57) at a dosage of 15 or 60 mg/kg as a single agent or in combination with E7449 based on body weight at 0.1 mL per 10 g. The control group was treated with oral vehicle (0.5% methyl cellulose in water) daily and intravenous vehicle (saline) once on Day 57. E7449 or vehicle was administered first, and when dosing of all animals was complete carboplatin was administered to animals receiving the combination.
The third experiment consisted of a vehicle control group, 3 groups treated with single agent E7449, E7389, or carboplatin, 3 groups treated with double combinations of E7449+E7389, E7449+carboplatin, and E7389+carboplatin and a group treated with the three-drug combination (Table 3). Sixty mice were inoculated with MDA-MB-436 cells and on Day 41 following implantation, tumor volumes were measured and mice were randomized into 8 treatment groups based on tumor volume (average of 250 mm^3). Following randomization drug treatment was initiated.

[2] = system: poly (ADP-ribose) (PAR) levels; assay: Pharmacodynamic biomarker analysis of poly (ADP-ribose) (PAR) levels in triple negative breast cancer xenograft tumor lysates; format: in vivo
Experimental: PAR levels rebounded at 24 hours in all models. […] In the HCC1806 (wild type for BRCA and PTEN) tumor lysate, E7389 treatment alone increased PAR at 24 and 48 hours.

SMILES	antitumor effect (tumor volume) ([1]; E7449+E7389 study, E7389 0.4 mg/kg IV Q4Dx4, single agent)	antitumor effect (tumor volume) ([1]; E7449+E7389 study, E7389 1.6 mg/kg IV Q4Dx4, single agent)	antitumor effect (tumor volume), dose dependence ([1]; E7449+E7389 study, E7389 0.4 and 1.6 mg/kg IV Q4Dx4, single agent)	antitumor effect (tumor volume) ([1]; triple combination study, E7389 0.2 mg/kg IV Q4Dx4, single agent, 0.2 mg/kg)	PARP activity in tumor lysates ([2]; E7389 treatment alone)	PAR levels in tumor lysates ([2]; HCC1806 tumor lysate, E7389 alone, 24 and 48 hours)	antitumor effect (tumor volume) ([1]; E7449+E7389 study, E7449 60 mg/kg PO QDx28, single agent)	antitumor effect (tumor volume) ([1]; E7449+carboplatin study, E7449 60 mg/kg PO QDx28, single agent)	antitumor effect (tumor volume) ([1]; triple combination study, E7449 60 mg/kg PO QDx28, single agent)	PARP inhibition / PAR levels in tumor lysates ([2]; 6 hours, MDA-MB-436, MDA-MB-468, MDA-MB-231 and HCC1806 tumor lysates)	PAR levels in tumor lysates ([2]; 24 hours, all four models)
C=C1C[C@@H]2CC[C@@]34C[C@H]5OC6[C@@H](O[C@H]7CC[C@H](CC(=O)C[C@@H]8[C@@H](OC)[C@@H](C[C@H](O)CN)O[C@H]8C[C@H]8O[C@@H](CC[C@@H]1O2)C[C@@H](C)C8=C)O[C@@H]7[C@@H]6O3)[C@H]5O4 [E7389, 11, 15:18,21:24,28-triepoxy-7,9-ethano-12,15-methano-9H,15H-furo[3,2-i]furo[2′,3′:5,6]pyrano[4,3-b] [1,4]dioxacyclopentacosin-5(4H)-one, 2-[(2S)-3-amino-2-hydroxypropyl]hexacosahydro-3-methoxy-26-methyl-20,27-bis(methylene)-, (2R,3R,3aS,7R,8aS,9S,10aR,11S,12R,13aR,13bS,15S,18S,21S,24S,26R,28R,29aS)-methanesulfonate (salt)]	modest antitumor effect	tumor regression	Dose dependent antitumor activity	did not significantly inhibit tumor growth	did not inhibit PARP activity	increased PAR					
O=c1[nH]nc2c3c(cccc13)N=C(CN1Cc3ccccc3C1)N2 [E7449]							modest and statistically significant tumor growth inhibition	modest and statistically significant tumor growth inhibition	statistically significant tumor growth inhibition	complete PARP inhibition	rebounded
